Results reported in paper PMC7413254 (Nature Communications, 2020).
Read-outs that look alike come from different tables or passages of the source.

How the values were obtained:
[1] = test system: non-expressing oocytes; assay type: cell-based, Xenopus laevis; conditions: non-expressing oocytes, total [3H]CQ transport, normalised to the oocyte type control
Summary of the method: (§1)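 Oocytes (ten per treatment, ≥4 independent frogs/days) were preloaded by injecting VF-6 in 25 nL ND96 at pH 5.0, 5.5, 6.0 or 7.0, or Na^+-free choline buffer, then uptake run 1.5 h, 27.5 °C, ND96 pH 5.5 by default. Internal concentrations assumed ~400 nL oocyte volume.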

[2] = biological target: T1, PfCRT^Dd2 (Plasmodium falciparum, UniProt Q9N623, A220S/I356T/K76T/M74I/N326S/N75E/Q271E/R371I); assay: cell-based; assay type: cell-based; conditions: for Uptake of [3H]CQ (% PfCRTDd2 control), trans-stimulation / PfCRT-mediated [3H]CQ transport, trans-stimulation (% PfCRTDd2 control): PfCRTDd2 oocytes; for Uptake of [3H]CQ (% PfCRTDd2 control), trans-stimulation: total [3H]CQ transport, normalised to the oocyte type control; for PfCRT-mediated [3H]CQ transport, trans-stimulation (% PfCRTDd2 control): normalised to oocyte type control; for [3H]CQ transport (% PfCRTDd2 control), trans-stimulation, PfCRTDd2: PfCRT-mediated component (background subtracted), mean ± SEM, SEM
T1 sequence (Q9N623 whole entry A220S/I356T/K76T/M74I/N326S/N75E/Q271E/R371I): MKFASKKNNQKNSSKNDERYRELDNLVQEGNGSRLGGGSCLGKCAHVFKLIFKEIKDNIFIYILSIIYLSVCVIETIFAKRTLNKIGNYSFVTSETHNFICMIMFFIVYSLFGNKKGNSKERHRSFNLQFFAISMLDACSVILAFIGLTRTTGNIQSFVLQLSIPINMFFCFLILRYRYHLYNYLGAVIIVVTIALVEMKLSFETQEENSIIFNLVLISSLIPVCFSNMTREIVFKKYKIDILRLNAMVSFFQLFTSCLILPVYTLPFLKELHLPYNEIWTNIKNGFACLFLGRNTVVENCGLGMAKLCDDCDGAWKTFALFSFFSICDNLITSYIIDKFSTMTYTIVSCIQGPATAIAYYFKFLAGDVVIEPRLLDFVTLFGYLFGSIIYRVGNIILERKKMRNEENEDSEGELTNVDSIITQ
Summary of the method: as §1

[3] = biological target: T2, PfCRT^3D7 (Plasmodium falciparum, UniProt Q8IBZ9); assay: cell-based; assay type: cell-based; conditions: PfCRT3D7 oocytes; for Uptake of [3H]CQ (% PfCRT3D7 control), trans-stimulation: total [3H]CQ transport, normalised to the oocyte type control; for PfCRT-mediated [3H]CQ transport, trans-stimulation (% PfCRT3D7 control): normalised to oocyte type control
T2 sequence (Q8IBZ9 59-398): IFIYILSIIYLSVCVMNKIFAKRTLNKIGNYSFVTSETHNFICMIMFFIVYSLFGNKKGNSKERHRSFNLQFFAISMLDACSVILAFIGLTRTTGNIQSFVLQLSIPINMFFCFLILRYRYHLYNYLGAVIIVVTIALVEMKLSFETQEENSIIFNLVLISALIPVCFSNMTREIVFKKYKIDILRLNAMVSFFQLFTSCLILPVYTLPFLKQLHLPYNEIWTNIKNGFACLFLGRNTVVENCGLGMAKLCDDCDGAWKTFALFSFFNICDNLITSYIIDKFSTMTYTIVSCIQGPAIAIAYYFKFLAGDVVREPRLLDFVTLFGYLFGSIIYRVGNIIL
Summary of the method: as §1

[4] = biological target: T3, PfCRT^Ecu1110 (Plasmodium falciparum, UniProt Q9N623, A220S/I356L/K76T/N326D); assay: cell-based; assay type: cell-based; conditions: for Uptake of [3H]CQ (% PfCRTEcu1110 control), trans-stimulation / PfCRT-mediated [3H]CQ transport, trans-stimulation (% PfCRTEcu1110 control): PfCRTEcu1110 oocytes; for Uptake of [3H]CQ (% PfCRTEcu1110 control), trans-stimulation: total [3H]CQ transport, normalised to the oocyte type control; for PfCRT-mediated [3H]CQ transport, trans-stimulation (% PfCRTEcu1110 control): normalised to oocyte type control; for [3H]CQ transport (% PfCRTDd2 control), trans-stimulation, PfCRTEcu1110: PfCRT-mediated component (background subtracted), sheet title says normalised to PfCRTDd2 control, mean ± SEM, SEM
T3 sequence (Q9N623 whole entry A220S/I356L/K76T/N326D): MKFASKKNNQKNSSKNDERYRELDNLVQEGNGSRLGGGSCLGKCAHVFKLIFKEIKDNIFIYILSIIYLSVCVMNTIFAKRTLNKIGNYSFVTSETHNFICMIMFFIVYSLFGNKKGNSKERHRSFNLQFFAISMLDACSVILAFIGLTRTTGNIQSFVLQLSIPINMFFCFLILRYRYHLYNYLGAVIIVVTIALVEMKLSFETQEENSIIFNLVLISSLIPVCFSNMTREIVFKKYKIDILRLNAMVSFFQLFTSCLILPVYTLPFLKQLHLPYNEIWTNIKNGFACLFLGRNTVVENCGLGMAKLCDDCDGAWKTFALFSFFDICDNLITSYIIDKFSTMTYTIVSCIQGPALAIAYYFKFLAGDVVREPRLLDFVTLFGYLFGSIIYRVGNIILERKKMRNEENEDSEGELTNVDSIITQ
Summary of the method: as §1

[5] = biological target: T4, PfNT1 (Plasmodium falciparum, UniProt Q8IDM6); assay: cell-based; assay type: cell-based; conditions: PfNT1 oocytes, total [3H]CQ transport, normalised to the oocyte type control
T4 construct: expressed in transfected cells; host or cells: Xenopus laevis oocytes (stage V-VI), cRNA-injected
T4 sequence (Q8IDM6 whole entry): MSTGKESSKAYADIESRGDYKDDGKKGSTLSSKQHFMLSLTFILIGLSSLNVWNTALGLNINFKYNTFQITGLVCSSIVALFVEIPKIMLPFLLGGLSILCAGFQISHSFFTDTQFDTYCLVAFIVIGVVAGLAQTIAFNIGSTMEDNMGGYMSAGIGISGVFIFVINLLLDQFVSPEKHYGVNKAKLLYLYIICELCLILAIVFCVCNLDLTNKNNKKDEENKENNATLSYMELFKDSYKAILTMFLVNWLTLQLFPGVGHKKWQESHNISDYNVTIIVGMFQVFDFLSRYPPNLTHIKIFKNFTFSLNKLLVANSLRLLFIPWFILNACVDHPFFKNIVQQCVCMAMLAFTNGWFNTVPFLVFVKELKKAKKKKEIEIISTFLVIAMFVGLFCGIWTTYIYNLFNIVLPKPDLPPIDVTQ
Summary of the method: as §1

[6] = test system: non-expressing oocytes; assay: cells; assay type: cell-based, Xenopus laevis; conditions: non-expressing oocytes, total [3H]CQ transport, normalised to the oocyte type control
Summary of the method: (§2)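 ND96, pH 5.5, 1.5 h, 27.5 °C; uptake direction acidic outside → oocyte cytosol, mimicking efflux from digestive vacuole. Ice-cold wash stop, 10% SDS lysis, scintillation counting. Ten oocytes/treatment, ≥4 independent experiments.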

[7] = biological target: T1, PfCRT^Dd2; assay: [3H]CQ uptake into Xenopus oocytes, cis-inhibition by unlabelled solute; assay type: cell-based; conditions: PfCRTDd2 oocytes, background [3H]CQ accumulation subtracted, normalised to oocyte type control
Summary of the method: as §2

[8] = biological target: T3, PfCRT^Ecu1110; assay: as above; assay type: cell-based; conditions: for Uptake of [3H]CQ (% PfCRTEcu1110 control), cis-inhibition / PfCRT-mediated [3H]CQ transport, cis-inhibition (% PfCRTEcu1110 control): PfCRTEcu1110 oocytes; for Uptake of [3H]CQ (% PfCRTEcu1110 control), cis-inhibition: total [3H]CQ transport, normalised to the oocyte type control; for PfCRT-mediated [3H]CQ transport, cis-inhibition (% PfCRTEcu1110 control): background [3H]CQ accumulation subtracted, normalised to oocyte type control; for [3H]CQ transport (% PfCRTEcu1110 control), cis-inhibition, PfCRTEcu1110: PfCRT-mediated component (background subtracted), sheet title says normalised to PfCRTDd2 control, mean ± SEM, SEM
Summary of the method: as §2

[9] = biological target: T2, PfCRT^3D7; assay: cell-based; assay type: cell-based; conditions: PfCRT3D7 oocytes, total [3H]CQ transport, normalised to the oocyte type control
Summary of the method: as §2

[10] = [test solute]i = 45 mM (30 mM for some solutes due to solubility)
[11] = [test solute]i = 5 mM (intracellular)
[12] = [test solute]i = 45 mM (intracellular; 30 mM for some solutes due to solubility)
[13] = [test solute]i = 5 mM (injected)

Substance: DPVN [DN-4]
- Uptake of [3H]CQ (% non-expressing oocyte control), trans-stimulation ([1]; [test solute]i = 5 mM): 99 ± 4.8 % non-expressing oocyte control
- Uptake of [3H]CQ (% non-expressing oocyte control), trans-stimulation [1, 10]: 99 ± 1.0 % non-expressing oocyte control
- Uptake of [3H]CQ (% PfCRTDd2 control), trans-stimulation ([2]; [test solute]i = 5 mM): 103 ± 1.1 % PfCRTDd2 control
- Uptake of [3H]CQ (% PfCRTDd2 control), trans-stimulation [2, 10]: 100 ± 3.8 % PfCRTDd2 control
- PfCRT-mediated [3H]CQ transport, trans-stimulation (% PfCRTDd2 control) [2, 11]: 99 ± 4.1 % PfCRTDd2 control
- PfCRT-mediated [3H]CQ transport, trans-stimulation (% PfCRTDd2 control) [2, 12]: 98 ± 3.9 % PfCRTDd2 control
- [3H]CQ transport (% PfCRTDd2 control), trans-stimulation, PfCRTDd2 [2, 13]: 99 ± 4.1 % PfCRTDd2 control
- [3H]CQ transport (% PfCRTDd2 control), trans-stimulation, PfCRTDd2 [2, 10]: 98 ± 3.9 % PfCRTDd2 control
- Uptake of [3H]CQ (% PfCRT3D7 control), trans-stimulation ([3]; [test solute]i = 5 mM): 121 ± 3.4 % PfCRT3D7 control
- Uptake of [3H]CQ (% PfCRT3D7 control), trans-stimulation [3, 10]: 153 ± 5.0 % PfCRT3D7 control
- PfCRT-mediated [3H]CQ transport, trans-stimulation (% PfCRT3D7 control) [3, 11]: 116 ± 2.3 % PfCRT3D7 control
- PfCRT-mediated [3H]CQ transport, trans-stimulation (% PfCRT3D7 control) [3, 12]: 147 ± 4.2 % PfCRT3D7 control
- Uptake of [3H]CQ (% PfCRTEcu1110 control), trans-stimulation ([4]; [test solute]i = 5 mM): 105 ± 3.6 % PfCRTEcu1110 control
- Uptake of [3H]CQ (% PfCRTEcu1110 control), trans-stimulation [4, 10]: 100 ± 2.2 % PfCRTEcu1110 control
- PfCRT-mediated [3H]CQ transport, trans-stimulation (% PfCRTEcu1110 control) [4, 11]: 102 ± 2.3 % PfCRTEcu1110 control
- PfCRT-mediated [3H]CQ transport, trans-stimulation (% PfCRTEcu1110 control) [4, 12]: 98 ± 3.2 % PfCRTEcu1110 control
- [3H]CQ transport (% PfCRTDd2 control), trans-stimulation, PfCRTEcu1110 [4, 13]: 31 ± 1.4 % PfCRTEcu1110 control
- [3H]CQ transport (% PfCRTDd2 control), trans-stimulation, PfCRTEcu1110 [4, 10]: 30 ± 1.4 % PfCRTEcu1110 control
- Uptake of [3H]CQ (% PfNT1 control), trans-stimulation ([5]; [test solute]i = 5 mM): 100 ± 3.2 % PfNT1 control
- Uptake of [3H]CQ (% PfNT1 control), trans-stimulation [5, 10]: 99 ± 3.2 % PfNT1 control
- Uptake of [3H]CQ (% non-expressing oocyte control), cis-inhibition ([6]; [test solute] = 0.5 mM): 98 ± 4.6 % non-expressing oocyte control
- Uptake of [3H]CQ (% non-expressing oocyte control), cis-inhibition ([6]; [test solute] = 1 mM): 99 ± 4.7 % non-expressing oocyte control
- Uptake of [3H]CQ (% non-expressing oocyte control), cis-inhibition ([6]; [test solute] = 2 mM): 99 ± 3.7 % non-expressing oocyte control
- PfCRT-mediated [3H]CQ transport, cis-inhibition (% PfCRTDd2 control) ([7]; [test solute] = 0.5 mM): 63 ± 3.1 % PfCRTDd2 control
- PfCRT-mediated [3H]CQ transport, cis-inhibition (% PfCRTDd2 control) ([7]; [test solute] = 1 mM): 47 ± 3.1 % PfCRTDd2 control
- PfCRT-mediated [3H]CQ transport, cis-inhibition (% PfCRTDd2 control) ([7]; [test solute] = 2 mM): 42 ± 3.2 % PfCRTDd2 control
- Uptake of [3H]CQ (% PfCRTEcu1110 control), cis-inhibition ([8]; [test solute] = 0.5 mM): 73 ± 4.4 % PfCRTEcu1110 control
- Uptake of [3H]CQ (% PfCRTEcu1110 control), cis-inhibition ([8]; [test solute] = 1 mM): 66 ± 3.8 % PfCRTEcu1110 control
- Uptake of [3H]CQ (% PfCRTEcu1110 control), cis-inhibition ([8]; [test solute] = 2 mM): 52 ± 3.3 % PfCRTEcu1110 control
- PfCRT-mediated [3H]CQ transport, cis-inhibition (% PfCRTEcu1110 control) ([8]; [test solute] = 1 mM): 61 ± 2.9 % PfCRTEcu1110 control
- PfCRT-mediated [3H]CQ transport, cis-inhibition (% PfCRTEcu1110 control) ([8]; [test solute] = 2 mM): 48 ± 2.4 % PfCRTEcu1110 control
- [3H]CQ transport (% PfCRTEcu1110 control), cis-inhibition, PfCRTEcu1110 ([8]; [test solute] = 0.5 mM): 21 ± 0.6 % PfCRTEcu1110 control
- [3H]CQ transport (% PfCRTEcu1110 control), cis-inhibition, PfCRTEcu1110 ([8]; [test solute] = 1 mM): 19 ± 0.4 % PfCRTEcu1110 control
- [3H]CQ transport (% PfCRTEcu1110 control), cis-inhibition, PfCRTEcu1110 ([8]; [test solute] = 2 mM): 15 ± 0.1 % PfCRTEcu1110 control
- Uptake of [3H]CQ (% PfCRT3D7 control), cis-inhibition ([9]; [test solute] = 0.5 mM): 100 ± 2.6 % PfCRT3D7 control
- Uptake of [3H]CQ (% PfCRT3D7 control), cis-inhibition ([9]; [test solute] = 1 mM): 100 ± 3.7 % PfCRT3D7 control
- Uptake of [3H]CQ (% PfCRT3D7 control), cis-inhibition ([9]; [test solute] = 2 mM): 100 ± 4.8 % PfCRT3D7 control
